In patent publication US11807648B2, “Process for preparing substituted polycyclic pyridone derivative and crystal thereof” (priority 2016, dated 2023):

How the values were obtained:
[1] = Plasma concentration after oral administration of Compound (VI) to rats; assay type: in vivo; conditions: after oral administration of Compound (VI) to rats under non-fasting condition
Source text: FIG. 7 is a time-course of the concentration in plasma of the compound of formula (V) after oral administration of the compound of formula (VI), which is a prodrug of the compound of formula (V), to rats under non-fasting condition.
FIG. 8 is a time-course of the concentration in plasma of the compound of formula (VI) after oral administration of the compound of formula (VI), which is a prodrug of the compound of formula (V), to rats under non-fasting condition.
FIG. 7 and FIG. 8 show the time-course of the concentration in plasma of Compound (V) and its prodrug Compound (VI) after oral administration of Compound (VI) to rats under non-fasting condition.

[2] = tested on: red blood cell suspension prepared from ovine defibrinated blood of sheep; assay: Photohemolysis test; assay type: cell-based; conditions: UVA and UVB irradiation 10 J/cm^2, 290-400 nm
Protocol: Test Example 12: Photohemolysis Test
Compound (V) was dissolved at a predetermined concentration and mixed on a microplate with a […] (2.5 v/v %) prepared from ovine defibrinated blood of sheep. Light irradiation in the UVA and UVB wavelength regions (10 J/cm^2, 290-400 nm) was performed using ultraviolet fluorescent lamp (GL20SE lamp, Sankyo Denki and FL20S-BLB lamp, Panasonic). The mixed solution after the irradiation was collected and centrifuged. After centrifugation, the supernatant was collected and transferred to a microplate, and the absorbance (at 540 or 630 nm) of the supernatant was measured. The absorbance at 540 and 630 nm were used as an index of biological membrane damage (% light hemolysis) and lipid membrane peroxidation (methemoglobin production), respectively. (−): less than 10% for photohemolysis rate and less than 0.05 for the change in absorbance at 630 nm; (+): 10% or more for photohemolysis rate and 0.05 or more for the change in absorbance at 630 nm.

CYP3A4 [3] = target: T1, CYP3A4 (Homo sapiens, UniProt P08684); assay type: in vitro ADME; design: host or cells: Escherichia coli; conditions: pre-reaction time 0 or 30 minutes, 7-BFC substrate
Protocol: Test Example 6: CYP3A4 Fluorescent MBI Test
The CYP3A4 fluorescent MBI test investigates enhancement of CYP3A4 inhibition by Compound (V) in metabolism reaction. 7-benzyloxytrifluoromethylcoumarin (7-BFC) was debenzylated by CYP3A4 enzyme (enzyme expressed in Escherichia coli) and a metabolite, 7-hydroxytrifluoromethylcoumarin (7-HFC) which emits fluorescent light was produced. The test was performed using 7-HFC production reaction as an index.
The reaction conditions were as follows: Substrate, 5.6 μmol/L 7-BFC; pre-reaction time, 0 or 30 minutes; reaction time, 15 minutes; reaction temperature, 25° C. […]
A pre-reaction solution containing the enzyme and Compound (V) in K-Pi buffer (pH 7.4) as described above was added to a 96-well plate. […] For each of the plates on which the reaction was performed, the fluorescent value of the metabolite 7-HFC was measured by fluorescent plate reader (Ex=420 nm, Em=535 nm).
As a control for remaining activity, DMSO (i.e., the solvent for dissolving Compound (V)) was added solely to the reaction system, and the remaining activity (%) was calculated for each concentration of Compound (V) in the solution. The IC50 value was calculated by reverse-presumption by logistic model using the concentration and the inhibition rate. […]

CYP3A4 [4] = target: T1, CYP3A4; assay: biochemical; assay type: in vitro ADME; design: Using commercially available pooled human hepatic microsome; from tissue; conditions: pooled human hepatic microsome 0.2 mg protein/mL, 15 minutes, 37° C.
Source text: (§1) Test Example 3: CYP Inhibition Test
(§2) Using commercially available pooled human hepatic microsome and employing, as a reference, typical substrate metabolism reactions of human main five CYP enzyme forms (CYP1A2, 2C9, 2C19, 2D6, 3A4), i.e., 7-ethoxyresorufin O-deethylation (CYP1A2), tolbutamide methyl-hydroxylation (CYP2C9), mephenytoin 4′-hydroxylation (CYP2C19), dextromethorphan O-demethylation (CYP2D6), and terfenedine hydroxylation (CYP3A4), the degree of inhibition by Compound (V) was assessed for each metabolite production.
The reaction conditions were as follows: […]
For each of the five substances, a reaction solution was prepared on a 96-well plate by adding the substrate, human hepatic microsome and Compound (V) to 50 mmol/L Hepes buffer in the proportion as described above. […] After centrifugation at 3000 rpm for minutes, resorufin (CYP1A2 metabolite) in the supernatant was measured by fluorescent multi-label counter, and hydroxytolbutamide (CYP2C9 metabolite), 4′-hydroxymephenytoin (CYP2C19 metabolite), dextrorphan (CYP2D6 metabolite) and terfenadine alcohol (CYP3A4 metabolite) were measured by LC/MS/MS. […]

[5] = assay type: in vitro ADME; conditions: 2 μmol/L of the compound, human liver microsomes 0.5 mg protein/mL, 30 minutes, 37° C., NADPH
Protocol: Test Example 5: Metabolism Stability Test
Compound (V) was reacted with commercially available pooled human hepatic microsomes for a certain time. The remaining rate of the compound was calculated by comparing the reacted sample and the unreacted sample to assess the degree of metabolism of Compound (V) in liver.
The compound was reacted in 0.2 mL of buffer (50 mmol/L Tris-HCl pH 7.4, 150 mmol/L potassium chloride, 10 mmol/L magnesium chloride) containing 0.5 mg protein/mL of human liver microsomes at 37° C. for 0 minute or 30 minutes in the presence of 1 mmol/L NADPH (oxidative reaction). After the reaction, 50 μL of the reaction solution was added to 100 μL of methanol/acetonitrile=1/1 (v/v), mixed and centrifuged at 3000 rpm for 15 minutes. The amount of Compound (V) in the supernatant was measured by LC/MS/MS, and the remaining rate of the compound after the reaction was calculated, with the amount of the compound at 0 minute of reaction time being 100%. The hydrolysis reaction was carried out in the absence of NADPH, and the glucuronidation reaction was carried out in the presence of 5 mmol/L UDP-glucuronic acid instead of NADPH, and the subsequent procedure was carried out in the same manner as described.

CYP1A2 = target: T2, CYP1A2 (Homo sapiens, UniProt P05177); assay: biochemical; assay type: in vitro ADME; conditions: pooled human hepatic microsome 0.2 mg protein/mL, 15 minutes, 37° C.
T2 construct: Using commercially available pooled human hepatic microsome; from tissue
T2 sequence (P05177 1-516): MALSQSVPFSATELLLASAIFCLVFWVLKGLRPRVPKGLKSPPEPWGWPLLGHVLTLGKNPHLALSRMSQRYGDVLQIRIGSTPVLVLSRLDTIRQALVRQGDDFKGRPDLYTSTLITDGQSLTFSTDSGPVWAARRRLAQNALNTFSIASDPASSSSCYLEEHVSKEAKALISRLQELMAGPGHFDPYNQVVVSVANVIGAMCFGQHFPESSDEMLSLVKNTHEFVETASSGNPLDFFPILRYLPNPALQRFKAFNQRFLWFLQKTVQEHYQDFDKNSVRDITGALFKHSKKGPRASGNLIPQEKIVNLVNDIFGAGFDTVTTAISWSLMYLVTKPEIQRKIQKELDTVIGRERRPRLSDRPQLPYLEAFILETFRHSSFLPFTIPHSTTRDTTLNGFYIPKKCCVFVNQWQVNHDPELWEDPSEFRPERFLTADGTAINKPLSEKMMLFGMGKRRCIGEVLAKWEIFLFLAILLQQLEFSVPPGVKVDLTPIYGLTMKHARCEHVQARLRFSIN
Source text: as §1, §2
(§3) The reaction conditions were as follows:
(§4) Substrate: 0.5 μmol/L ethoxyresorufin (CYP1A2), 100 μmol/L tolbutamide (CYP2C9), 50 μmol/L S-mephenytoin (CYP2C19), 5 μmol/L dextromethorphan (CYP2D6), 1 μmol/L terfenedine (CYP3A4); Reaction time: 15 minutes; Reaction temperature: 37° C.; Enzyme: pooled human hepatic microsome 0.2 mg protein/mL; Concentration of Compound (V): 1, 5, 10, 20 μmol/L (four points).
(§5) For each of the five substances, a reaction solution was prepared on a 96-well plate by adding the substrate, human hepatic microsome and Compound (V) to 50 mmol/L Hepes buffer in the proportion as described above. NADPH, which is a cofactor, was added to initiate the metabolism reaction. After incubating at 37° C. for 15 minutes, a methanol/acetonitrile solution (1/1 (v/v)) was added to quench the reaction. After centrifugation at 3000 rpm for minutes, resorufin (CYP1A2 metabolite) in the supernatant was measured by fluorescent multi-label counter, and hydroxytolbutamide (CYP2C9 metabolite), 4′-hydroxymephenytoin (CYP2C19 metabolite), dextrorphan (CYP2D6 metabolite) and terfenadine alcohol (CYP3A4 metabolite) were measured by LC/MS/MS.
(§6) As a control, DMSO (the solvent for dissolving Compound (V)) was added solely to the reaction system. The remaining activity (%) of Compound (V), relative to the control (100%), was calculated at each concentration of the compound, and the IC50 was calculated by reverse presumption by a logistic model using the concentration and the inhibition rate.

CYP2D6 = target: T3, CYP2D6 (Homo sapiens, UniProt P10635); assay: biochemical; assay type: in vitro ADME; conditions: pooled human hepatic microsome 0.2 mg protein/mL, 15 minutes, 37° C.
T3 construct: Using commercially available pooled human hepatic microsome; from tissue
Source text: as §1, §2, §3, §4, §5, §6

CYP2C9 = target: T4, CYP2C9 (Homo sapiens, UniProt P11712); assay: biochemical; assay type: in vitro ADME; conditions: pooled human hepatic microsome 0.2 mg protein/mL, 15 minutes, 37° C.
T4 construct: Using commercially available pooled human hepatic microsome; from tissue
Source text: as §1, §2, §3, §4, §5, §6

CYP2C19 = target: T5, CYP2C19 (Homo sapiens, UniProt P33261); assay: biochemical; assay type: in vitro ADME; conditions: pooled human hepatic microsome 0.2 mg protein/mL, 15 minutes, 37° C.
T5 construct: Using commercially available pooled human hepatic microsome; from tissue
Source text: as §1, §2, §3, §4, §5, §6

T1 sequence (P08684 whole entry): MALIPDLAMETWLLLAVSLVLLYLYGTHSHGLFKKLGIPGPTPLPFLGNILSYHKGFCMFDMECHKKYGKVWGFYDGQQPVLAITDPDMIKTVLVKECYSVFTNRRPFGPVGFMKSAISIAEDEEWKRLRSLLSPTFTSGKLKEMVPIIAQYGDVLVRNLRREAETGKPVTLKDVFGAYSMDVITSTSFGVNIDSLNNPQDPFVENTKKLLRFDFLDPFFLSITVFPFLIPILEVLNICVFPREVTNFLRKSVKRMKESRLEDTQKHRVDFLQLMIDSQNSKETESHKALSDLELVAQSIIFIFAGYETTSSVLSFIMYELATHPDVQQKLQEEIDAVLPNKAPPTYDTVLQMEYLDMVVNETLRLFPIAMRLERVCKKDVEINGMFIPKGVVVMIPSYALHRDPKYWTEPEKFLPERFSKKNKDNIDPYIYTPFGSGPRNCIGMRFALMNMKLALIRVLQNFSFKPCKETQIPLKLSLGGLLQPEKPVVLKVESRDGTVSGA
T5 sequence (P33261 whole entry): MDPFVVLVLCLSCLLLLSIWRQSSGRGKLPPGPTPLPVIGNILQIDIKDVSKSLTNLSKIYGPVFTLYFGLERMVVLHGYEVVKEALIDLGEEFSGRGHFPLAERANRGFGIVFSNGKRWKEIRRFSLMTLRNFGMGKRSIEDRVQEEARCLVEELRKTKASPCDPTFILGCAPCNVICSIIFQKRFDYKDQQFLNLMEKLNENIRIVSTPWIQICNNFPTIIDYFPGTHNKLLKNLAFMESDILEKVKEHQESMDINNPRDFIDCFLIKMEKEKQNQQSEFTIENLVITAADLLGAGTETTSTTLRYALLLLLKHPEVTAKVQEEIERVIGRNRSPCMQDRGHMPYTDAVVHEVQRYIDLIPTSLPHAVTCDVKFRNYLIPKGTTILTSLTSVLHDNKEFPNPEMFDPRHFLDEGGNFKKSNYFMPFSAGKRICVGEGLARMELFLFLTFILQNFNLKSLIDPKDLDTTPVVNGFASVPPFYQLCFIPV
T4 sequence (P11712 whole entry): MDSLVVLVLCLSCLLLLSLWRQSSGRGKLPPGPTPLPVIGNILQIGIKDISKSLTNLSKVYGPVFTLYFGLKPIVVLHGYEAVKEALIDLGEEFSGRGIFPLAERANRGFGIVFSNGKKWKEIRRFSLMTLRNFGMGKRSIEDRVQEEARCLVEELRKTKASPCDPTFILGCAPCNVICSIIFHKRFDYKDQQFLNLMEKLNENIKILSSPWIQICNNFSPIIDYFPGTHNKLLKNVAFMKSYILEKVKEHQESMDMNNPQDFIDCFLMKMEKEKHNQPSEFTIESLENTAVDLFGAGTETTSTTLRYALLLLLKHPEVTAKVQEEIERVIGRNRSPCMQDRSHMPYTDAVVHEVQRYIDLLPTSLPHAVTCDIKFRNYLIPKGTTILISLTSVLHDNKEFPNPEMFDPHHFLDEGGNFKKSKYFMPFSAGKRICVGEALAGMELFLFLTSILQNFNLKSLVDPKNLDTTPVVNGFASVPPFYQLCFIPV
T3 sequence (P10635 whole entry): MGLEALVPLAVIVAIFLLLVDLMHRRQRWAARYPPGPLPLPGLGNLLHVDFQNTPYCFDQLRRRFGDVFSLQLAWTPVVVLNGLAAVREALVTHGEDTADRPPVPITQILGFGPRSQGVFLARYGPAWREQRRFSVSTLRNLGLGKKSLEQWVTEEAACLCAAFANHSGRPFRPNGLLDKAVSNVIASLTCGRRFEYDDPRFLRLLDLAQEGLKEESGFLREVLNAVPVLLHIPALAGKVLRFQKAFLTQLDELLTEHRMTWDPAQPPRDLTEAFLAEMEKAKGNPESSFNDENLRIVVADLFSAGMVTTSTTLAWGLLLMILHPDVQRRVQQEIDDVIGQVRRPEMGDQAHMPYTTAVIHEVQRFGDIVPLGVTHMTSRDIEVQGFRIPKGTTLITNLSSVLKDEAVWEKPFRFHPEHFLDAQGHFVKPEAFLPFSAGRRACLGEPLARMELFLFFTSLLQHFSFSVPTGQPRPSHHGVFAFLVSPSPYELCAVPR

Question: Which “concentration in plasma sample” value [1] does the source give for `COC(=O)OCOc1c2n(ccc1=O)N([C@@H]1c3ccccc3SCc3c1ccc(F)c3F)[C@@H]1COCCN1C2=O` [Compound (VI)] here?
Answer: The value was “below the limit of quantification”.

Question: What does the source list for `O=C1c2c(O)c(=O)ccn2N([C@@H]2c3ccccc3SCc3c2ccc(F)c3F)[C@@H]2COCCN12` [Compound (V)]?
Answer: photohemolysis [2]: (−) ((−): less than 10% for photohemolysis rate and less than 0.05 for the change in absorbance at 630 nm); CYP3A4 fluorescent MBI (difference in IC50 values with/without pre-incubation) (CYP3A4 [3]): (−) (a difference of 3 μM or less was defined as (−)); IC50 (CYP3A4 [4]): > 20 µM; remaining rate in oxidative metabolism [5]: 90.1%; IC50 (CYP1A2): > 20 µM; IC50 (CYP2D6): > 20 µM; IC50 (CYP2C9): > 20 µM; IC50 (CYP2C19): > 20 µM
